Results: publication PMC4613240, “A Series of New Ligustrazine-Triterpenes Derivatives as Anti-Tumor Agents: Design, Synthesis, and Biological Evaluation” (International Journal of Molecular Sciences, 2015)

Legend:
HepG2 cells [1] = experiment: Intracellular free Ca2+ detection (Fluo-3AM, flow cytometry); type: cell-based, human; conditions: 72 h, control MFI 4773
Procedure: A sustained increase in intracellular Ca^2+ concentrations is recognized as a factor for cell death or injury. The level of intracellular free Ca^2+ is examined by the fluorescent dye Fluo-3AM. The Fluo-3 AM is converted to Fluo-3 upon deacetylation within the cells, and Fluo-3 increases green fluorescence upon Ca^2+ binding. […] As the concentration of 4a increased from 5.0 to 6.0 to 7.0 μM, intracellular free Ca^2+ fluorescence increased dramatically (from 4800 to 5612 to 6955). It was in accordance with the tendencies of mitochondrial membrane potential and cell apoptosis.
The level of intracellular free Ca^2+ was examined by the fluorescent dye Fluo-3AM. HepG2 cells (1 × 10^5 cells/mL) in logarithmic growth phase were cultured in 6-well plates for 24 h at 37 °C in incubator with 5% CO2. After exposed to different concentrations of 4a (5, 6, 7 μM) for 72 h, cells were harvested and washed twice with cold PBS, then resuspended in HBSS buffer with 10 μM Fluo-3AM (Fluo-3AM, Shanghai Beyotime Biotech. Co., Ltd., Shanghai, China), and incubated for 30 min at 37 °C in the dark. Detection of intracellular Ca^2+ was carried out by the Flow Cytometer at 488 nm excitation wavelength.

HepG2 cells [2] = experiment: Morphological observation using Giemsa staining; type: cell-based, human; conditions: HepG2, 2, 4, 8 μM for 72 h
Procedure: The morphological changes in HepG2 cells were examined by Giemsa staining. HepG2 cells were seeded in 6-well plates. The cell density was adjusted to 4 × 10^3/well and incubated overnight. After 72 h reaction with certain concentrations of 4a (2, 4, 8 μM), cells were washed with PBS and fixed with cold methanol for 10 min. Methanol was discarded and cells were air-dried. Then fixed cells were stained with 6% Giemsa (Giemsa, Molecular Probes/Invitrogen Life Technologies, Carlsbad, CA, USA) solution for 5 min, washed with water and dried. The cell morphological changes were observed and photographed under a light microscope.

In the case of C=C(C)[C@@H]1CC[C@]2(C(=O)OCc3nc(C)c(C)nc3C)CC[C@]3(C)C(CCC4[C@@]5(C)CC[C@H](O)C(C)(C)C5CC[C@]43C)C12 (stereo partly drawn) [Compound 4a, 3β-Hydroxy-lup-20(29)-ene-28-oic acid-3,5,6-trimethylpyrazin-2-methyl ester], the “intracellular free Ca2+ fluorescence (MFI), Fluo-3AM” value (“intracellular free Ca2+ fluorescence” below) (HepG2 cells [1]; HepG2, 5 μM) is reported as 4800, the “intracellular free Ca2+ fluorescence” value (HepG2 cells [1]; HepG2, 6 μM) is reported as 5612 and the “intracellular free Ca2+ fluorescence” value (HepG2 cells [1]; HepG2, 7 μM) is reported as 6955. For the same compound, the “cell morphology after Giemsa staining” value (HepG2 cells [2]) was “evident nuclear fragmentation, chromatin condensation in a dose dependent manner”.
